Patent publication US8293731B2, “HIV integrase inhibitors” (Merck Sharp + Dohme Corp., priority 2005, dated 2012)

The molecules below were run on HIV (assay: Assay for inhibition of HIV replication (spread assay): acute HIV infection of T-lymphoid cells). Details: Human immunodeficiency virus 1, 'less than about'.
Format: cell-based
Method: Assays for the inhibition of acute HIV infection of T-lymphoid cells were conducted in accordance with Vacca, J. P. et al., Proc. Natl. Acad. Set USA 1994, 91: 4096. […] For example, the compounds of Examples 1 to 64 were tested in this assay and found to have IC95 values of less than about 10 micromolar.

SMILES	IC95
CC1(C)C(=O)N(CC(N)=O)c2c3c(c(O)c(=O)n21)C(=O)N(Cc1ccc(F)c(Cl)c1)CC3 [Example 53, 2-[8-(3-Chloro-4-fluorobenzyl)-6-hydroxy-3,3-dimethyl-2,5,7-trioxo-2,3,7,8,9,10-hexahydroimidazo[2,1-a]-2,6-naphthyridin-1(5H)-yl]acetamide]	< 10 µM
O=C1c2c(c3n(c(=O)c2O)CCCCN(CCN2CCCC2)C3=O)CCN1Cc1ccc(F)c(Cl)c1 [Example 17, 11-(3-Chloro-4-fluorobenzyl)-9-hydroxy-2-(2-pyrrolidinyl-1-ylethyl)-3,4,5,6,12,13-hexahydro-2H[1,4]diazocino[2,1-a]-2,6-naphthyridine-1,8,10(11H)-trione]	< 10 µM
O=C1NCCn2c1c1c(c(O)c2=O)C(=O)N(Cc2ccc(F)c(Cl)c2)CC1 [Example 5, 9-(3-Chloro-4-fluorobenzyl)-7-hydroxy-3,4,10,11-tetrahydro-2H-pyrazino[2,1-a]-2,6-naphthyridine-1,6,8(9H)-trione]	< 10 µM
CC1(C)C(=O)N(CCO)c2c3c(c(O)c(=O)n21)C(=O)N(Cc1ccc(F)c(Cl)c1)CC3 [Example 54, 8-(3-Chloro-4-fluorobenzyl)-6-hydroxy-1-(2-hydroxyethyl)-3,3-dimethyl-1,8,9,10-tetrahydroimidazo[2,1-a]-2,6-naphthyridine-2,5,7(3H)-trione]	< 10 µM
O=C1OCCCCn2c1c1c(c(O)c2=O)C(=O)N(Cc2ccc(F)c(Cl)c2)CC1 [Example 61, 11-(3-Chloro-4-fluorobenzyl)-9-hydroxy-3,4,5,6,12,13-hexahydro-[1,4]oxazocino[3,4-a]-2,6-naphthyridine-1,8,10(11H)-trione]	< 10 µM
CC(=O)OCCCCN1C(=O)C(C)(C)n2c1c1c(c(O)c2=O)C(=O)N(Cc2ccc(F)c(Cl)c2)CC1 [Example 59, 8-(3-Chloro-4-fluorobenzyl)-6-hydroxy-1-(4-acetyloxybutyl)-3,3-dimethyl-1,8,9,10-tetrahydroimidazo[2,1-a]-2,6-naphthyridine-2,5,7(3H)-trione]	< 10 µM
CN1CC(O)CCn2c(c3c(c(O)c2=O)C(=O)N(Cc2ccc(F)c(Cl)c2)CC3)C1=O (single isomer, unassigned) [Example 23, 11-(3-Chloro-4-fluorobenzyl)-4,9-dihydroxy-2-methyl-3,4,5,6,12,13-hexahydro-2H[1,4]diazocino[2,1-a]-2,6-naphthyridine-1,8,10(11H)-trione]	< 10 µM
CC1(C)C(=O)N(CCCCO)c2c3c(c(O)c(=O)n21)C(=O)N(Cc1ccc(F)c(Cl)c1)CC3 [Example 56, 8-(3-Chloro-4-fluorobenzyl)-6-hydroxy-1-(4-hydroxybutyl)-3,3-dimethyl-1,8,9,10-tetrahydroimidazo[2,1-a]-2,6-naphthyridine-2,5,7(3H)-trione]	< 10 µM
C[C@H]1C[C@H](O)CN(C)C(=O)c2c3c(c(O)c(=O)n21)C(=O)N(Cc1ccc(F)c(Cl)c1)CC3 [Example 44, (4S,6S)-11-(3-Chloro-4-fluorobenzyl)-4,9-dihydroxy-2,6-dimethyl-3,4,5,6,12,13-hexahydro-2H[1,4]diazocino[2,1-a]-2,6-naphthyridine-1,8,10(11H)-trione]	< 10 µM
C=C1CCCN(C)C(=O)c2c3c(c(O)c(=O)n21)C(=O)N(Cc1ccc(F)c(Cl)c1)CC3 [Example 50, 11-(3-chloro-4-fluorobenzyl)-9-hydroxy-2-methyl-6-methylene-3,4,5,6,12,13-hexahydro-2H-[1,4]diazocino[2,1-a]2,6-naphthyridine-1,8,10(11H)trione]	< 10 µM
CS(=O)(=O)NCCN1CCCCn2c(c3c(c(O)c2=O)C(=O)N(Cc2ccc(F)c(Cl)c2)CC3)C1=O [Example 21, 11-(3-Chloro-4-fluorobenzyl)-9-hydroxy-2-[2-(methamesulfonylamino)ethyl]-3,4,5,6,12,13-hexahydro-2H[1,4]diazocino[2,1-a]-2,6-naphthyridine-1,8,10(11H)-trione]	< 10 µM
CNC(=O)CN1CCCCn2c(c3c(c(O)c2=O)C(=O)N(Cc2ccc(F)c(Cl)c2)CC3)C1=O [Example 14, 2-[11-(3-Chloro-4-fluorobenzyl)-9-hydroxy-1,8,10-trioxo-1,3,4,5,6,8,10,11,12,13-deca-hydro-2H-[1,4]diazocino[2,1-a]-2,6-naphthyridin-2-yl]-N-methylacetamide]	< 10 µM
CN1CCCn2c(c3c(c(O)c2=O)C(=O)N(Cc2ccc(F)c(Cl)c2)CC3)C1=O [Example 3, 10-(3-Chloro-4-fluorobenzyl)-8-hydroxy-2-methyl-2,3,4,5,11,12-hexahydro[1,4]diazepino[2,1-a]-2,6-naphthyridine-1,7,9(10H)-trione]	< 10 µM
CC(=O)OCCN1CCCCn2c(c3c(c(O)c2=O)C(=O)N(Cc2ccc(F)c(Cl)c2)CC3)C1=O [Example 10, 11-(3-Chloro-4-fluorobenzyl)-9-hydroxy-2-[2-(acetyloxy)ethyl]-3,4,5,6,12,13-hexahydro-2H[1,4]diazocino[2,1-a]-2,6-naphthyridine-1,8,10(11H)-trione]	< 10 µM
CC(=O)OCCN1C(=O)C(C)(C)n2c1c1c(c(O)c2=O)C(=O)N(Cc2ccc(F)c(Cl)c2)CC1 [Example 57, 8(3-Chloro-4-fluorobenzyl)-6-hydroxy-1-(2-acetyloxyethyl)-3,3-dimethyl-1,8,9,10-tetrahydroimidazo[2,1-a]-2,6-naphthyridine-2,5,7(3H)-trione]	< 10 µM
CC(=O)OCC1Cn2c(c3c(c(O)c2=O)C(=O)N(Cc2ccc(F)c(Cl)c2)CC3)C(=O)O1 (stereo not drawn) [Example 63, 9-(3-Chloro-4-fluorobenzyl)-7-hydroxy-3-(acetyloxymethyl)-3,4,10,11-tetrahydro[1,4]oxazino[3,4-a]-2,6-naphthyridine-1,6,8(9H)-trione]	< 10 µM
O=C1OCCn2c1c1c(c(O)c2=O)C(=O)N(Cc2ccc(F)c(Cl)c2)CC1 [Example 7, 9-(3-Chloro-4-fluorobenzyl)-7-hydroxy-3,4,10,11-tetrahydro[1,4]oxazino[3,4-a]-2,6-naphthyridine-1,6,8(9H)-trione]	< 10 µM
O=C1OCCCn2c1c1c(c(O)c2=O)C(=O)N(Cc2ccc(F)c(Cl)c2)CC1 [Example 62, 10-(3-Chloro-4-fluorobenzyl)-8-hydroxy-4,5,11,12-tetrahydro-3H-[1,4]oxazepino[3,4-a]-2,6-naphthyridine-1,7,9(10H)-trione]	< 10 µM
CC1CCCN(CCO)C(=O)c2c3c(c(O)c(=O)n21)C(=O)N(Cc1ccc(F)c(Cl)c1)CC3 (stereo not drawn) [Example 30, 11-(3-Chloro-4-fluorobenzyl)-9-hydroxy-2-(2-hydroxyethyl)-6-methyl-3,4,5,6,12,13-hexahydro-2H[1,4]diazocino[2,1-a]-2,6-naphthyridine-1,8,10(11H)-trione]	< 10 µM
O=C1OC(CO)Cn2c1c1c(c(O)c2=O)C(=O)N(Cc2ccc(F)c(Cl)c2)CC1 (stereo not drawn) [Example 64, 9-(3-Chloro-4-fluorobenzyl)-7-hydroxy-3-(hydroxymethyl)-3,4,10,11-tetrahydro[1,4]oxazino[3,4-a]-2,6-naphthyridine-1,6,8(9H)trione]	< 10 µM
CNC(=O)CN1C(=O)C(C)(C)n2c1c1c(c(O)c2=O)C(=O)N(Cc2ccc(F)c(Cl)c2)CC1 [Example 52, 2-[8-(3-Chloro-4-fluorobenzyl)-6-hydroxy-3,3-dimethyl-2,5,7-trioxo-2,3,7,8,9,10-hexahydroimidazo[2,1-a]-2,6-naphthyridin-1(5H)-yl]-N-methylacetamide]	< 10 µM
